Experimental data: patent US6887896B1, “7-[(7-Alkoxy)-chrom-3-en-6-yl]-heptatrienoic acid and 7-[(3-alkoxy)-5,6-dihydronaphthalen-2-yl]-heptatrienoic acid derivatives having serum glucose reducing activity” (Allergan, Inc., priority 2003, dated 2005)

Columns and labels:
RXRα = molecular target: T1, RXRα (Homo sapiens, UniProt P19793); assay: ligand binding assay, RXRα; details: for Ki: read-out: RXR Bind Ki α; for Kd: Table 9 (Formula F), read-out: RXR α Kd
T1 construct: expressed in transfected cells
T1 sequence (P19793 1-462): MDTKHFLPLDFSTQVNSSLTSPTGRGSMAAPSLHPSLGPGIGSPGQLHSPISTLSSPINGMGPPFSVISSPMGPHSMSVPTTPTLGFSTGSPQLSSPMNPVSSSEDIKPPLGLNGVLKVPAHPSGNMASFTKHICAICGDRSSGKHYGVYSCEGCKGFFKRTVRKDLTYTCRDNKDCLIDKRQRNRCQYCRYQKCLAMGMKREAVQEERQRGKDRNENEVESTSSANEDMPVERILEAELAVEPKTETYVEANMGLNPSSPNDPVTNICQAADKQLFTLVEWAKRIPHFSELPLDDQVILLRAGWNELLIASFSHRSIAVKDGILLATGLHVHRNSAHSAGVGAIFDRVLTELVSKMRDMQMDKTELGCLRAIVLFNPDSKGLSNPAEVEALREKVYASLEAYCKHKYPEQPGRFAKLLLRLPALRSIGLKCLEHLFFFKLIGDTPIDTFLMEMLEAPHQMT
Method in brief: (§1)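 Binding of compounds to several retinoid receptor subtypes was measured. Results are given as Ki values in nanomolar concentration, derived per Cheng et al.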

RXRγ = molecular target: T2, RXRγ (UniProt P28705); assay: holoreceptor transactivation assay, RXRγ; format: cell-based; details: for EC50: holoreceptor transactivation, read-out: RXR Trans. EC50 γ; for RXR Trans. efficacy (number in parentheses) γ: percentage compared to the standard compound
T2 sequence (P28705 1-463): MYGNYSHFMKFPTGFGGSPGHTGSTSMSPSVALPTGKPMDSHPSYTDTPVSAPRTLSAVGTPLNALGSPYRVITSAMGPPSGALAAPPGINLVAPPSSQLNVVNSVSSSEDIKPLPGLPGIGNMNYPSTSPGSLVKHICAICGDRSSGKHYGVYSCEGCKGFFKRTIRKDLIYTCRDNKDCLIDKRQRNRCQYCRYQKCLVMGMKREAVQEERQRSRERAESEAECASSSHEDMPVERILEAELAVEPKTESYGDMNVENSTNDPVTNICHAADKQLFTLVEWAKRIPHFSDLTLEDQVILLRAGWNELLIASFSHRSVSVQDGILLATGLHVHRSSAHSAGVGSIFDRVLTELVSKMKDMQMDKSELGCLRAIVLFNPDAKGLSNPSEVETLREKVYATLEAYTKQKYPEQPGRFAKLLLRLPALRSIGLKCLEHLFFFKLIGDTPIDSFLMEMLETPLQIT
Source text: Specifically, one such assay is a chimeric receptor transactivation assay which tests for agonist-like activity in the R RAPE and RAR7 receptor subtypes, and which is based on work published by Feigner, P. L. and Holm, M (1989) Focus, 112 is described in detail in U.S. Pat. No. 5,455,265. The specification of U.S. Pat. No. 5,455,265 is hereby expressly incorporated by reference. A holoreceptor transactivation assay and a ligand binding assay which measure the antagonist/agonist like activity of the compounds of the invention, or their ability to bind to the several retinoid receptor subtypes, respectively, are described in published PCT Application No. WO WO93/11755 (particularly on pages 30-33 and 37-41) published on Jun. 24, 1993, the specification of which is also incorporated herein by reference. A detailed experimental procedure for holoreceptor transactivations has been described by Heyman et al. Cell 68, 397-406, (1992); Allegretto et al. J. Biol. Chem. 268, 26625-26633, and Mangelsdorf et al. The Retinoids: Biology, Chemistry and Medicine, pp 319-349, Raven Press Ltd., New York, which are expressly incorporated herein by reference. The results obtained in this assay are expressed in EC50 numbers, as they are also in the chimeric receptor transactivation assay. The results of the ligand binding assay are expressed in Ki numbers. (See Cheng et al. Biochemical Pharmacology Vol. 22 pp 3099-3108, expressly incorporated herein by reference.)
Efficacy in a transactivation assay is expressed as a percentage of the maximum potency attained by the compound compared to a standard which, in this case, is the compound named (2E,4E,1′S,2′S)-3-methyl-5-[2′-methyl-2′-(5,5,8,8-tetramethyl-5,6,7,8-tetrahydro-naphthalen-2-yl)-cyclopropyl]-penta-2,4-dienoic acid. This standard compound is described in U.S. Pat. No. 6,114,533.
The specification of this application for patent is organized in several sections in accordance with structural Formulas A through F each of which discloses a group of preferred compounds within the scope of the invention. Tables that disclose the activity of certain exemplary compounds of the invention in the above-described RXR receptor transactivation and binding assays are found in the corresponding sections. […] The transactivation data pertaining to the activation of RXR receptors were obtained in the holoreceptor assay.
Generally speaking, in the tables disclosing the results of transactivation and binding assays the numbers in parentheses indicate efficacy as a percentage compared to the standard compound, (2E,4E,1′S,2′S)-3-methyl-5-[2′-methyl-2′-(5,5,8,8-tetramethyl-5,6,7,8-tetrahydro-naphthalen-2-yl)cyclopropyl]-penta-2,4-dienoic acid and the other numbers indicate the measured EC50 and K; in nanomolar concentration.

RXRβ [1] = molecular target: T3, RXRβ (UniProt P28704); assay: ligand binding assay, RXRβ; details: for Ki: read-out: RXR Bind Ki β; for Kd: Table 9 (Formula F), read-out: RXR β Kd
T3 sequence (P28704 1-520): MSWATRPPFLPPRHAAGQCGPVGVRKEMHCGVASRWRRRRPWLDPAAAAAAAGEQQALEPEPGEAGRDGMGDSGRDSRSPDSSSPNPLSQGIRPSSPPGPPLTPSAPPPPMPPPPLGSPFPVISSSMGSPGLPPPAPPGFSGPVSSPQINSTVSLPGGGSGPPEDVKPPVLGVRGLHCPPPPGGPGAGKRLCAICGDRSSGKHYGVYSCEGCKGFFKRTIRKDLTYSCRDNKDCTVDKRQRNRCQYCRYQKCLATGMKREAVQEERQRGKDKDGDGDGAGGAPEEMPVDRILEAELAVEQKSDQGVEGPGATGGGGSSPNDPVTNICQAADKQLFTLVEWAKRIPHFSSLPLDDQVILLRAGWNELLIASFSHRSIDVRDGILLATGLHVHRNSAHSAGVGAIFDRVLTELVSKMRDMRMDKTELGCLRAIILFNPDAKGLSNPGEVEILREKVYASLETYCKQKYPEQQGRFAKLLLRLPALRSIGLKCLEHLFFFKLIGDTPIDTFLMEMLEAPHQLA
Method in brief: as §1

RXRβ [2] = molecular target: T3, RXRβ; assay: holoreceptor transactivation assay, RXRβ; format: cell-based; details: for EC50: holoreceptor transactivation, read-out: RXR Trans. EC50 β; for RXR Trans. efficacy (number in parentheses) β: percentage compared to the standard compound
Method in brief: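 Readout: EC50, nM, from receptor transactivation; efficacy = % of maximum vs standard cyclopropyl penta-2,4-dienoic acid retinoid. RXR data from holoreceptor format; RAR data from chimeric receptor format.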

| Structure (SMILES) | Ki (RXRα) [nM] | EC50 (RXRγ) [nM] | RXR Trans. efficacy (number in parentheses) γ (RXRγ) | Ki (RXRβ [1]) [nM] | EC50 (RXRβ [2]) [nM] | RXR Trans. efficacy (number in parentheses) β (RXRβ [2]) [%] | Kd (RXRα) [nM] | Kd (RXRβ [1]) [nM] |
| --- | --- | --- | --- | --- | --- | --- | --- | --- |
| CCOc1cc2c(cc1\C(CC)=C(F)/C=C/C(C)=C/C(=O)O)C=CCC2(C)C [Compound A-77] | 6 | 41 | (73) % | 63 | > 1000 |  |  |  |
| CCOc1cc2c(cc1\C(CC)=C(F)/C=C/C(C)=C/C(=O)O)C(CC)=CCC2(C)C [Compound A-78, (2E,4E,6E)-7-(3-Ethoxy-8-ethyl-5,5-dimethyl-5,6-dihydro-naphthalen-2-yl)-6-fluoro-3-methyl-nona-2,4,6-trienoic acid] | 3 | 4 | 11% | 19 | 18 | 23 |  |  |
| CCOc1cc2c(cc1\C(C)=C(F)/C=C/C(C)=C/C(=O)O)C(C(C)(C)C)=CCC2(C)C [Compound A-82, (2E,4E,6E)-6-Fluoro-3-(4,4-dimethyl-6-ethoxy-1-tert-butyl-3,4 dihydronaphthalen-7-yl)-3-methyl-2,4,6-octa-trienoic acid] | 2 | 2 | 31% | 14 | 4 | 41 |  |  |
| CCOc1c(\C(=C(F)/C=C/C(C)=C/C(=O)O)C(C)C)cc2c(c1Br)C(C)(C)CC=C2C(C)C [Compound A-171, (2E,4E,6E)-7-(4-Bromo-3-ethoxy-8-isopropyl-5,5-dimethyl-5,6-dihydro-naphthalen-2-yl)-6-fluoro-3.8-dimethyl-nona-2.4,6-trienoic acid] |  | 2 | 16% |  | 3 | 30 | 2 | 15 |
| CC(/C=C/C(F)=C(/C)c1cc2c(c(Br)c1OC(C)C)C(C)(C)CC=C2C(C)C)=C\C(=O)O [Compound A-172, (2E,4E,6E)-7-(4-Bromo-3-isopropoxy-8-isopropyl-5,5-dimethyl-5,6-dihydro-naphthalen-2-yl)-6-fluoro-3-methyl-octa-2,4,6-trienoic acid] |  | 18 | 12% |  | 83 | 39 | 8 | 41 |

Now from value to molecule:

| Ki (RXRα) [nM] | EC50 (RXRγ) [nM] | RXR Trans. efficacy (number in parentheses) γ (RXRγ) | Ki (RXRβ [1]) [nM] | EC50 (RXRβ [2]) [nM] | RXR Trans. efficacy (number in parentheses) β (RXRβ [2]) [%] | Kd (RXRα) [nM] | Kd (RXRβ [1]) [nM] | Structure (SMILES) |
| --- | --- | --- | --- | --- | --- | --- | --- | --- |
| 5 | 2.7 | 11% | 31 | 11 | 21 |  |  | CCOc1cc2c(cc1\C(=C/C=C/C(C)=C/C(=O)O)CC)C(C(C)(C)C)=CCC2(C)C [Compound A-18, 7-(8-tert-butyl-3-ethyoxy-5,5-dimethyl-5,6-dihydronaphthalen-2-yl)-3-methyl-nona-2E,4E,6Z-trienoic acid] |
| 35 | 51 | 109% | 347 | 368 | 128 |  |  | CCOc1cc2c(cc1\C(C)=C(F)/C=C/C(C)=C/C(=O)O)C=CCC2(C)C [Compound A-76, (2E,4E,6E)-7-(3-Ethoxy-5,5-dimethyl-5,6-dihydro-naphthalen-2-yl)-6-fluoro-3-methyl-octa-2,4.6-trienoic acid] |
| 2 | 2 | 59% | 13 | 4 | 60 |  |  | CCOc1cc2c(cc1\C(C)=C(F)/C=C/C(C)=C/C(=O)O)C(C(C)C)=CCC2(C)C [Compound A-79, (2E,4E,6E)-6-Fluoro-3-(4,4-dimethylethoxy-1-isopropyl-3,4-dihydronaphthalen-7-yl)-3-methyl-2.4,6-octa-trienoic acid] |
| 2 | 2 | 7% | 12 | 7 | 17 |  |  | CCOc1cc2c(cc1\C(CC)=C(F)/C=C/C(C)=C/C(=O)O)C(C(C)(C)C)=CCC2(C)C [Compound A-83, (2E,4E,6E)-7-(8-tert-Butyl-3-ethoxy-5,5-dimethyl-5,6-dihydronaphthalen-2-yl)-6-fluoro-3-methyl-nona-2,4,6-trienoic acid] |
|  | 0.6 | 71% |  | 2.2 | 68 | 3 | 16 | CCOc1c(\C(C)=C(F)/C=C/C(C)=C/C(=O)O)cc2c(c1Br)C(C)(C)CC=C2C(C)C [Compound A-169, (2E,4E,6E)-7-(4-Bromo-3-ethoxy-8-isopropyl-5,5-dimethyl-5,6-dihydro-naphthalen-2-yl)-6-fluoro-3-methyl-octa-2.4,6-trienoic acid] |
|  | 0.4 | 53% |  | 1 | 59 | 2 | 14 | CCOc1c(\C(CC)=C(F)/C=C/C(C)=C/C(=O)O)cc2c(c1Br)C(C)(C)CC=C2C(C)C [Compound A-170, (2E,4E,6E)-7-(4-Bromo-3-ethoxy-8-isopropyl-5,5-dimethyl-5,6-dihydro-naphthalen-2-yl)-6-fluoro-3-methyl-nona-2,4,6-trienoic acid] |
|  | 2 | 12% |  | 7 | 25 | 2 | 12 | CCOc1c(\C(C)=C(F)/C=C/C(C)=C/C(=O)O)cc2c(c1Br)C(C)(C)CC=C2C(C)(C)C [Compound A-174, (2E,4E,6E)-7-(4-Bromo-8-tert-butyl-3-ethoxy-5,5-dimethyl-5,6-dihydro-naphthalen-2-yl)-6-fluoro-3-methyl-octa-2,4,6-trienoic acid] |
